Reference: US12221434B2, “Sulfonamide carboxamide compounds” (Inflazome Limited, priority 2017, dated 2025)
One block for each molecule: values may come before it.

Key:
[1] = molecular target: T1, NLRP3 (Homo sapiens, UniProt Q96P20); experiment: THP-1 cells pyroptosis assay (LPS + nigericin, resazurin read-out); assay type: cell-based; parameters: Seed THP-1 cells (25,000 cells/well) containing 1.0 μg/ml LPS; host or cells: THP-1 cells, LPS-primed, nigericin-stimulated; conditions: 1 μg/ml LPS, 5 μM nigericin, NLRP3 inhibitory activity
Experimental: THP-1 cells (ATCC #TIB-202) were grown in RPMI containing L-glutamine (Gibco #11835) supplemented with 1 mM sodium pyruvate (Sigma #S8636) and penicillin (100 units/ml)/streptomycin (0.1 mg/ml) (Sigma #P4333) in 10% Fetal Bovine Serum (FBS) (Sigma #F0804). The cells were routinely passaged and grown to confluency (˜10^6 cells/ml). On the day of the experiment, THP-1 cells were harvested and resuspended into RPMI medium (without FBS). The cells were then counted and viability (>90%) checked by Trypan blue (Sigma #T8154). Appropriate dilutions were made to give a concentration of 625,000 cells/ml. To this diluted cell solution was added LPS (Sigma #L4524) to give a 1 μg/ml Final Assay Concentration (FAC). 40 μl of the final preparation was aliquoted into each well of a 96-well plate. The plate thus prepared was used for compound screening.
The following method step-by-step assay was followed for compound screening. • 1. Seed THP-1 cells (25,000 cells/well) containing 1.0 μg/ml LPS in 40 μl of RPMI medium (without FBS) in 96-well, black walled, clear bottom cell culture plates coated with poly-D-lysine (VWR #734-0317) • 2. Add 5 μl compound (8 points half-log dilution, with 10 μM top dose) or vehicle (DMSO 0.1% FAC) to the appropriate wells • 3. Incubate for 3 hrs at 37° C. and 5% CO2 • 4. Add 5 μl nigericin (Sigma #N7143) (FAC 5 μM) to all wells • 5. Incubate for 1 hr at 37° C. and 5% CO2 • 6. At the end of the incubation period, spin plates at 300×g for 3 mins and remove supernatant • 7. Then add 50 μl of resazurin (Sigma #R7017) (FAC […] resazurin in RPMI medium without FBS) and incubate plates for a further 1-1.5 h at 37° C. and 5% CO2 • 8. Plates were read in an Envision reader at Ex 560 nm and Em 590 nm • 9. IC50 data is fitted to a non-linear regression equation (log inhibitor vs response-variable slope 4-parameters) 96-Well Plate Map

[2] = molecular target: T1, NLRP3; experiment: Human whole blood IL1β release assay (LPS + nigericin, AlphaLisa IL-1β); assay type: cell-based; parameters: Plate out 80 μl of whole blood containing 1 μg/ml of LPS; from tissue; host or cells: human whole blood from healthy donors (Li-heparin), LPS-primed, nigericin-stimulated; conditions: 1 μg/ml LPS, 10 μM nigericin, IL-1β release, read-out: HWB IC50
Experimental: For systemic delivery, the ability to inhibit NLRP3 when the compounds are present within the bloodstream is of great importance. For this reason, the NLRP3 inhibitory activity of a number of compounds in human whole blood was investigated in accordance with the following protocol.
Human whole blood in Li-heparin tubes was obtained from healthy donors from a volunteer donor panel. • 1. Plate out 80 μl of whole blood containing 1 μg/ml of LPS in 96-well, clear bottom cell culture plate (Corning #3585) • 2. Add 10 μl compound (8 points half-log dilution with 10 μM top dose) or vehicle (DMSO 0.1% FAC) to the appropriate wells • 3. Incubate for 3 hrs at 37° C., 5% CO2 • 4. Add 10 μl nigericin (Sigma #N7143) (10 μM FAC) to all wells • 5. Incubate for 1 hr at 37° C., 5% CO2 • 6. At the end of the incubation period, spin plates at 300×g for 5 mins to pellet cells and remove 20 μl of supernatant and add to 96-well v-bottom plates for IL-1β analysis (note: these plates containing the supernatants can be stored at −80° C. to be analysed at a later date) • 7. IL-1β was measured according to the manufacturer protocol (Perkin Elmer-AlphaLisa IL-1 Kit AL220F-5000) • 8. IC50 data is fitted to a non-linear regression equation (log inhibitor vs response-variable slope 4-parameters)

T1 sequence (Q96P20 whole entry): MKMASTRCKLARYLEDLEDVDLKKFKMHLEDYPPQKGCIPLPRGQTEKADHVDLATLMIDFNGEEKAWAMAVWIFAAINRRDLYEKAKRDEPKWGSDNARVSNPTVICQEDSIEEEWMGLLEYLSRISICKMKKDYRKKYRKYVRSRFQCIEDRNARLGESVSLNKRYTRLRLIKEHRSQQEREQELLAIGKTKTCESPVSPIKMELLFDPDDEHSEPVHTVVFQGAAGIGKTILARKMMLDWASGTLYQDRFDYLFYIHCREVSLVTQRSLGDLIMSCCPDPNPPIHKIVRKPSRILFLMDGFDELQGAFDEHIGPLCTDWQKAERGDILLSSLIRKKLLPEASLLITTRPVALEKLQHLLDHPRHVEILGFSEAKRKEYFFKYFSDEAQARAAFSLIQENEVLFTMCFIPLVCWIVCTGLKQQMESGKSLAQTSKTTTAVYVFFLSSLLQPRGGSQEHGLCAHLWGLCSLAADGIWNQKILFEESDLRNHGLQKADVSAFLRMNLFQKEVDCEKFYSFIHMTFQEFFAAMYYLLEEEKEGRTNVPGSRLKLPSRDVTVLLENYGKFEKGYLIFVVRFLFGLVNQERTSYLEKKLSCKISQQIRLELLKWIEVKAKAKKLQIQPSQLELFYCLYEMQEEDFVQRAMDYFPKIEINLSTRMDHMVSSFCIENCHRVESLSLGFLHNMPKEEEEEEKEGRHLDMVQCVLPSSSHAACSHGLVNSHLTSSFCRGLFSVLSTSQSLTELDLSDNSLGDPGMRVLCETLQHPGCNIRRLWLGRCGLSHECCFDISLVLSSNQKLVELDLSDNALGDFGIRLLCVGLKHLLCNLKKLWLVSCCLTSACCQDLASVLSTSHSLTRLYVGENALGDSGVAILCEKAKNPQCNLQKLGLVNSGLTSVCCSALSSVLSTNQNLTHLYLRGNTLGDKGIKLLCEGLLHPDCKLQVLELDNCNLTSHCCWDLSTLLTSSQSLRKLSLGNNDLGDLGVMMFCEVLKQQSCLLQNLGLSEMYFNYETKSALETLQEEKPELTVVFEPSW

Compound: Cn1ccnc1Cn1ccc(S(=O)(=O)NC(=O)Nc2c3c(cc4c2CCC4)CCC3)n1 [Example 3, N-((1,2,3,5,6,7-Hexahydro-s-indacen-4-yl)carbamoyl)-1-((1-methyl-1H-imidazol-2-yl)methyl)-H-pyrazole-3-sulfonamide]
IC50 [2]: 0.4 to 0.8 µM

Compound: O=C(Nc1c2c(cc3c1CCC3)CCC2)NS(=O)(=O)c1ccn(-c2ccccn2)n1 [Example 4, N-((1,2,3,5,6,7-Hexahydro-s-indacen-4-yl)carbamoyl)-1-(pyridin-2-yl)-1H-pyrazole-3-sulfonamide]
IC50 [1]: 0.64 to 2.56 µM

Compound: O=C(Nc1c2c(cc3c1CCC3)CCC2)NS(=O)(=O)c1ccn(-c2nccs2)n1 [Example 5, N-((1,2,3,5,6,7-Hexahydro-s-indacen-4-yl)carbamoyl)-1-(thiazol-2-yl)-1H-pyrazole-3-sulfonamide]
IC50 [1]: 0.64 to 2.56 µM

Compound: O=C(Nc1c2c(cc3c1CCC3)CCC2)NS(=O)(=O)c1ccn(-c2cccnc2)n1 [Example 6, N-((1,2,3,5,6,7-Hexahydro-s-indacen-4-yl)carbamoyl)-1-(pyridin-3-yl)-1H-pyrazole-3-sulfonamide]
IC50 [1]: 0.64 to 2.56 µM

Compound: CN(Cc1ccnn1C)C(=O)c1cc(S(=O)(=O)NC(=O)Nc2c3c(cc4c2CCC4)CCC3)nn1C [Example 10, 3-(N-((1,2,3,5,6,7-Hexahydro-s-indacen-4-yl)carbamoyl)sulfamoyl)-N,1-dimethyl-N-((1-methyl-1H-pyrazol-5-yl)methyl)-1H-pyrazole-5-carboxamide]
IC50 [1]: 0.64 to 2.56 µM

Second part, the molecule after the results:

IC50 [1]: 0.64 to 2.56 µM
Compound: O=C(Nc1c2c(cc3c1CCC3)CCC2)NS(=O)(=O)c1ccn(Cc2ncccn2)n1 [Example 1, N-((1,2,3,5,6,7-Hexahydro-s-indacen-4-yl)carbamoyl)-1-(pyrimidin-2-ylmethyl)-1H-pyrazole-3-sulfonamide]

IC50 [2]: 3.2 to 10 µM
IC50 [1]: 0.04 to 0.16 µM
Compound: O=C(Nc1c2c(cc3c1CCC3)CCC2)NS(=O)(=O)c1ccn(Cc2ncco2)n1 [Example 2, N-((1,2,3,5,6,7-Hexahydro-s-indacen-4-yl)carbamoyl)-1-(oxazol-2-ylmethyl)-1H-pyrazole-3-sulfonamide]

IC50 [2]: 1.6 to 3.2 µM
IC50 [1]: 0.16 to 0.64 µM
Compound: CN(Cc1nccs1)C(=O)c1cc(S(=O)(=O)NC(=O)Nc2c3c(cc4c2CCC4)CCC3)nn1C [Example 7, 3-(N-((1,2,3,5,6,7-Hexahydro-s-indacen-4-yl)carbamoyl)sulfamoyl)-N,1-dimethyl-N-(thiazol-2-ylmethyl)-1H-pyrazole-5-carboxamide]

IC50 [2]: 0.8 to 1.6 µM
IC50 [1]: 0.04 to 0.16 µM
Compound: CN(Cc1nccn1C)C(=O)c1cc(S(=O)(=O)NC(=O)Nc2c3c(cc4c2CCC4)CCC3)nn1C [Example 8, 3-(N-((1,2,3,5,6,7-Hexahydro-s-indacen-4-yl)carbamoyl)sulfamoyl)-N,1-dimethyl-N-((1-methyl-1H-imidazol-2-yl)methyl)-1H-pyrazole-5-carboxamide]

IC50 [1]: 0.16 to 0.64 µM
Compound: CN(C(=O)c1cc(S(=O)(=O)NC(=O)Nc2c3c(cc4c2CCC4)CCC3)nn1C)c1nccs1 [Example 9, 3-(N-((1,2,3,5,6,7-Hexahydro-s-indacen-4-yl)carbamoyl)sulfamoyl)-N,1-dimethyl-N-(thiazol-2-yl)-1H-pyrazole-5-carboxamide]
